Measurements: PubChem BioAssay AID256 (DTP/NCI, 2004)
Values joined by “and” are separate entries in the source; they are usually repeats but may differ in a detail not shown here. Identical values can stand only once. Inconclusive results and toxic doses are left out. How the source made its calls: active means survival T/C of 150% or more; inactive means T/C below 125% in these data.

System: CD2F1 mice, L1210 leukemia ip, survival T/C
Assay: NCI In Vivo Anticancer Drug Screen. Data for tumor model L1210 Leukemia (intraperitoneal) in CD2F1 (CDF1) mice
Details: higher = longer survival
Method in brief: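 Read-out first: treated-group measurement over vehicle-control measurement, expressed as a ratio. Animals bore a transplanted tumor line and were dosed with compound or vehicle.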

[1] = endpoint: mean survival time, dose: 100.0 mg/kg/injection, schedule: Q01DX001 (ip), vehicle: saline
[2] = endpoint: mean survival time, dose: 200.0 mg/kg/injection, schedule: Q01DX001 (ip), vehicle: saline
[3] = endpoint: mean survival time, dose: 400.0 mg/kg/injection, schedule: Q01DX001 (ip), vehicle: saline
[4] = endpoint: mean survival time, dose: 100.0 mg/kg/injection, schedule: Q04DX002 (ip), vehicle: saline with Tween-80
[5] = endpoint: mean survival time, dose: 200.0 mg/kg/injection, schedule: Q04DX002 (ip), vehicle: saline with Tween-80
[6] = endpoint: mean survival time, dose: 400.0 mg/kg/injection, schedule: Q04DX002 (ip), vehicle: saline with Tween-80
[7] = endpoint: mean survival time, dose: 200.0 mg/kg/injection, schedule: Q04DX003 (ip), vehicle: saline with Tween-80
[8] = endpoint: mean survival time, dose: 50.0 mg/kg/injection, schedule: Q04DX002 (ip), vehicle: saline with Tween-80
[9] = endpoint: mean survival time, dose: 100.0 mg/kg/injection, schedule: Q04DX003 (ip), vehicle: saline with Tween-80
[10] = endpoint: mean survival time, dose: 400.0 mg/kg/injection, schedule: Q04DX003 (ip), vehicle: saline with Tween-80
[11] = endpoint: mean survival time, dose: 100.0 mg/kg/injection, schedule: Q01DX009 (ip), vehicle: saline with Tween-80
[12] = endpoint: mean survival time, dose: 200.0 mg/kg/injection, schedule: Q01DX009 (ip), vehicle: saline with Tween-80
[13] = endpoint: mean survival time, dose: 100.0 mg/kg/injection, schedule: Q01DX001 (ip), vehicle: saline with Tween-80
[14] = endpoint: mean survival time, dose: 12.5 mg/kg/injection, schedule: Q04DX003 (ip), vehicle: saline

Measured: T/C

CC(=O)n1cc(CS)c(=O)[nH]c1=O
inactive: endpoint: mean survival time, dose: 5.0 mg/kg/injection, schedule: Q01DX001 (ip), vehicle: saline 105 % of control | endpoint: mean survival time, dose: 10.0 mg/kg/injection, schedule: Q01DX001 (ip), vehicle: saline 98 % of control | endpoint: mean survival time, dose: 20.0 mg/kg/injection, schedule: Q01DX001 (ip), vehicle: saline 105 % of control | endpoint: mean survival time, dose: 40.0 mg/kg/injection, schedule: Q01DX001 (ip), vehicle: saline 105 % of control | endpoint: mean survival time, dose: 80.0 mg/kg/injection, schedule: Q01DX001 (ip), vehicle: saline 105 % of control

CCCC(CCC)(C(N)=O)C(=O)O
inactive: [1] 97 % of control | [2] 97 % of control | [3] 94 % of control

C[CH2][Sn]1([CH2]C)[O]C2C(CO)OC(n3ccc4c(N)ncnc43)C2[O]1 (stereo not given)
inactive: endpoint: mean survival time, dose: 0.78 mg/kg/injection, schedule: Q01DX005 (ip), vehicle: other 110 % of control | endpoint: mean survival time, dose: 1.56 mg/kg/injection, schedule: Q01DX005 (ip), vehicle: other 104 % of control | endpoint: mean survival time, dose: 3.13 mg/kg/injection, schedule: Q01DX005 (ip), vehicle: other 117 % of control

NCc1cccn1OCc1ccccc1
inactive: endpoint: mean survival time, dose: 25.0 mg/kg/injection, schedule: Q01DX009 (ip), vehicle: Klucel (hydroxypropylcellulose) (HPC) 96 % of control | endpoint: mean survival time, dose: 50.0 mg/kg/injection, schedule: Q01DX009 (ip), vehicle: Klucel (hydroxypropylcellulose) (HPC) 96 % of control | endpoint: mean survival time, dose: 100.0 mg/kg/injection, schedule: Q01DX009 (ip), vehicle: Klucel (hydroxypropylcellulose) (HPC) 107 % of control

O=C(O)C1C2C=CC3(O2)C(=O)N(Cc2ccccc2)C(=O)C13 (stereo not given)
inactive: [4] 95 % of control | [5] 103 % of control | [6] 98 % of control

O=C(/C=C/C=C/c1ccccc1)c1ccc(Cl)cc1
inactive: endpoint: mean survival time, dose: 37.5 mg/kg/injection, schedule: Q04DX003 (ip), vehicle: saline with Tween-80 97 % of control | endpoint: mean survival time, dose: 75.0 mg/kg/injection, schedule: Q04DX003 (ip), vehicle: saline with Tween-80 97 % of control | endpoint: mean survival time, dose: 150.0 mg/kg/injection, schedule: Q04DX003 (ip), vehicle: saline with Tween-80 89 % of control | [7] 90 % of control | endpoint: mean survival time, dose: 300.0 mg/kg/injection, schedule: Q04DX003 (ip), vehicle: saline with Tween-80 93 % of control

Clc1ccc(SSc2ccc(Cl)cc2Cl)c(Cl)c1
inactive: [4] 90 % of control | [5] 104 % of control | [6] 95 % of control

CC1=NNC2c3ccccc3-c3ccccc3N2C1 (stereo not given)
inactive: [1] 94 % of control | [2] 93 % of control | [3] 98 % of control

CN(Cc1cnc2nc(N)nc(N)c2n1)c1ccc(C(=O)NC(CCC(=O)NC(CCC(=O)NC(CCC(=O)NC(CCC(=O)O)C(=O)O)C(=O)O)C(=O)O)C(=O)O)cc1 (stereo not given)
inactive: endpoint: mean survival time, dose: 0.5 mg/kg/injection, schedule: Q01DX005 (ip), vehicle: sodium bicarbonate 102 % of control | endpoint: mean survival time, dose: 1.0 mg/kg/injection, schedule: Q01DX005 (ip), vehicle: sodium bicarbonate 114 % of control and 111 % of control | endpoint: mean survival time, dose: 2.0 mg/kg/injection, schedule: Q01DX005 (ip), vehicle: sodium bicarbonate 118 % of control

Cc1cc(C)c2nc(N)sc2c1
inactive: endpoint: mean survival time, dose: 25.0 mg/kg/injection, schedule: Q04DX002 (ip), vehicle: saline with Tween-80 96 % of control | [8] 93 % of control | [4] 93 % of control

CN(C)CCCN1c2ccccc2C(C)(C)c2ccccc21
inactive: endpoint: mean survival time, dose: 12.5 mg/kg/injection, schedule: Q01DX009 (ip), vehicle: saline with Tween-80 105 % of control | endpoint: mean survival time, dose: 25.0 mg/kg/injection, schedule: Q01DX009 (ip), vehicle: saline with Tween-80 103 % of control | endpoint: mean survival time, dose: 50.0 mg/kg/injection, schedule: Q01DX009 (ip), vehicle: saline with Tween-80 97 % of control | [9] 86 % of control | [10] 114 % of control

O=C(O)CC1NCCC12OCCO2 (stereo not given)
inactive: [1] 97 % of control | endpoint: mean survival time, dose: 100.0 mg/kg/injection, schedule: Q01DX009 (ip), vehicle: saline 98 % of control | [2] 102 % of control | endpoint: mean survival time, dose: 200.0 mg/kg/injection, schedule: Q01DX009 (ip), vehicle: saline 98 % of control | [3] 92 % of control | endpoint: mean survival time, dose: 400.0 mg/kg/injection, schedule: Q01DX009 (ip), vehicle: saline 101 % of control

NC(=O)CCc1ccnc2ccccc12
inactive: [4] 96 % of control | [5] 92 % of control

Nc1ccc(C(=O)CC(O)(C(F)(F)F)C(F)(F)F)cc1
inactive: [9] 113 % of control | [7] 111 % of control | [10] 113 % of control

Fc1c(F)c(F)c(-c2c(F)c(F)c(-c3c(F)c(F)c(-c4c(F)c(F)c(F)c(F)c4F)c(F)c3F)c(F)c2F)c(F)c1F
inactive: [11] 96 % of control | [12] 88 % of control

CC1(C)CCC2(C(=O)O)CCC3(C)C(=CCC4C5(C)CC(O)C(OC6OC(CO)C(O)C(O)C6O)C(C)(CO)C5C(O)CC43C)C2C1 (stereo not given)
inactive: [8] 102 % of control

CC(=O)c1ccc2c3c(cccc13)CC2
inactive: [13] 94 % of control | endpoint: mean survival time, dose: 200.0 mg/kg/injection, schedule: Q01DX001 (ip), vehicle: saline with Tween-80 96 % of control | endpoint: mean survival time, dose: 400.0 mg/kg/injection, schedule: Q01DX001 (ip), vehicle: saline with Tween-80 110 % of control

FC(F)(F)c1ccc2c(c1)Nc1ccccc1S2
inactive: [14] 96 % of control and 98 % of control | endpoint: mean survival time, dose: 25.0 mg/kg/injection, schedule: Q04DX003 (ip), vehicle: saline 96 % of control and 101 % of control | endpoint: mean survival time, dose: 50.0 mg/kg/injection, schedule: Q04DX003 (ip), vehicle: saline 101 % of control and 104 % of control | endpoint: mean survival time, dose: 100.0 mg/kg/injection, schedule: Q04DX003 (ip), vehicle: saline 101 % of control and 104 % of control | endpoint: mean survival time, dose: 200.0 mg/kg/injection, schedule: Q04DX003 (ip), vehicle: saline 96 % of control and 98 % of control

CN(Cc1ccccc1)N=Nc1ccc(C#N)cc1
inactive: [11] 104 % of control | [12] 112 % of control | endpoint: mean survival time, dose: 400.0 mg/kg/injection, schedule: Q01DX009 (ip), vehicle: saline with Tween-80 112 % of control

[N-]=[N+]=NC1CCOC(n2cnc3c(N)ncnc32)C1O (stereo not given)
inactive: endpoint: median survival time, dose: 25.0 mg/kg/injection, schedule: Q01DX005 (ip), vehicle: Klucel (hydroxypropylcellulose) (HPC) 102 % of control | endpoint: median survival time, dose: 25.0 mg/kg/injection, schedule: Q01DX005 (ip), vehicle: Klucel + Tween-80 101 % of control | endpoint: median survival time, dose: 50.0 mg/kg/injection, schedule: Q01DX005 (ip), vehicle: Klucel (hydroxypropylcellulose) (HPC) 100 % of control | endpoint: median survival time, dose: 50.0 mg/kg/injection, schedule: Q01DX005 (ip), vehicle: Klucel + Tween-80 101 % of control | endpoint: median survival time, dose: 100.0 mg/kg/injection, schedule: Q01DX005 (ip), vehicle: Klucel (hydroxypropylcellulose) (HPC) 108 % of control | endpoint: median survival time, dose: 100.0 mg/kg/injection, schedule: Q01DX005 (ip), vehicle: Klucel + Tween-80 102 % of control | endpoint: median survival time, dose: 200.0 mg/kg/injection, schedule: Q01DX005 (ip), vehicle: Klucel (hydroxypropylcellulose) (HPC) 102 % of control | endpoint: median survival time, dose: 200.0 mg/kg/injection, schedule: Q01DX005 (ip), vehicle: Klucel + Tween-80 102 % of control

C/C=C/C(=O)Nc1ccc(Cl)c(Cl)c1
inactive: endpoint: mean survival time, dose: 25.0 mg/kg/injection, schedule: Q01DX001 (ip), vehicle: saline with Tween-80 102 % of control | endpoint: mean survival time, dose: 50.0 mg/kg/injection, schedule: Q01DX001 (ip), vehicle: saline with Tween-80 101 % of control | [13] 95 % of control

COc1ccc(C(O)C#N)cc1O (stereo not given)
inactive: endpoint: mean survival time, dose: 3.13 mg/kg/injection, schedule: Q01DX009 (ip), vehicle: saline 101 % of control | endpoint: mean survival time, dose: 6.25 mg/kg/injection, schedule: Q01DX009 (ip), vehicle: saline 103 % of control | endpoint: mean survival time, dose: 6.25 mg/kg/injection, schedule: Q04DX003 (ip), vehicle: saline 101 % of control | endpoint: mean survival time, dose: 12.5 mg/kg/injection, schedule: Q01DX009 (ip), vehicle: saline 101 % of control | [14] 106 % of control
